Earlier results in patent publication EP3878534A1, “EXTRACTION AND BACK-EXTRACTION OF HYDROPHOBIC COMPOUNDS USING DEEP EUTECTIC SOLVENT WITH TUNEABLE HYDROPHOBICITY” (Wageningen Universiteit, priority 2020, dated 2021).

How the values were obtained:
[1] = octanol/water, individual compound

SMILES | Log Poct (Pub Chem) [1] | pKa
CC1CCC(C(C)C)C(O)C1 (racemic) [DL-Menthol, 2-isopropyl-5-methylcyclohexanol] | 3.20 | 
CCCCCC(=O)O [Hexanoic acid] | 1.92 | 4.88
CCCCCCCC(=O)O [Octanoic acid] | 3.05 | 
